Experimental data taken from US9346761B2, “Arginine methyltransferase inhibitors and uses thereof” (Epizyme, Inc., priority 2013, dated 2016).

Assays:
[1] = biological target: T1, Full-length human PRMT1 isoform 1 (Homo sapiens, UniProt Q99873); assay: PRMT1 biochemical assay (3H-SAM Flashplate, peptide substrate)
T1 construct: GST-tagged PRMT1; made in house; host or cells: High Five insect cells (baculovirus, pFastBacI)
How it was run: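 Tritiated methyl transfer from 3H-SAM onto biotinylated peptide, captured on streptavidin Flashplates and counted. Baculovirus-expressed GST-PRMT1 and compound were preincubated 30 min at room temperature in Bicine buffer pH 7.6. Cold SAM at 300 uM final ended the reaction.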

Human CARM1 (PRMT4) = biological target: T2, Human CARM1 (PRMT4) (Homo sapiens, UniProt Q86X55); assay: CARM1 biochemical assay (3H-SAM Flashplate, peptide substrate)
T2 construct: Flag-CARM1-His was eluted with 200 ug/ml FLAG peptide in buffer A; made in house; host or cells: HEK 293F cells (BacMam virus, pFastBacMam)
T2 sequence (Q86X55 with tags, fused parts or gaps isoform Q86X55-1): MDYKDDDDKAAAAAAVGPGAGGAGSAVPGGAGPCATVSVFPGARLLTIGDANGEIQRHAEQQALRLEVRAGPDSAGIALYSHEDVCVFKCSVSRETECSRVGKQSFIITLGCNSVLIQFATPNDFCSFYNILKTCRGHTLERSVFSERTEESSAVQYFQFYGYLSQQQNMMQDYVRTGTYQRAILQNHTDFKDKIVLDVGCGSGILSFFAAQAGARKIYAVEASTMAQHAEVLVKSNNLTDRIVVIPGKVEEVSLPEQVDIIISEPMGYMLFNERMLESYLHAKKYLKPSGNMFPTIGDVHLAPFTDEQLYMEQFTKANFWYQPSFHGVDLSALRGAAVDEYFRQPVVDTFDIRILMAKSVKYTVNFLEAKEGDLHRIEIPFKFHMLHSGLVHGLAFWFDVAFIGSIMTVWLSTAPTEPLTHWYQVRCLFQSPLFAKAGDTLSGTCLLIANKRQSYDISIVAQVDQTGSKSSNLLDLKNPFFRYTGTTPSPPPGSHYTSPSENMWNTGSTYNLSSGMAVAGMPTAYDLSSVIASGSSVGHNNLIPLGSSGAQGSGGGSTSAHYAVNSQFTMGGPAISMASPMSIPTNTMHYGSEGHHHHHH
Description: General Materials. S-adenosylmethionine (SAM), S-adenosylhomocysteine (SAH), bicine, Tween20, dimethylsulfoxide (DMSO), bovine skin gelatin (BSG), sodium butyrate and Tris(2-carboxyethyl)phosphine hydrochloride solution (TCEP) were purchased from Sigma-Aldrich at the highest level of purity possible. ^3H-SAM was purchase from American Radiolabeled Chemicals with a specific activity of 80 Ci/mmol. 384-well streptavidin Flashplates were purchased from PerkinElmer.
Substrates. Peptide representative of human histone H3 residues 16-30 was synthesized with an N-terminal linker-affinity tag motif and a C-terminal amide cap by 21st Century Biochemicals.
Protein Expression. Recombinant baculovirus were generated according to Bac-to-Bac kit instructions (Life Technologies). […] Infections were carried out at 37° C. for 48 hours, harvested by centrifugation, and stored at −80° C. for purification.
Protein Purification. […] Column was washed with 500 mM NaCl in buffer A and Flag-CARM1-His was eluted with 200 ug/ml FLAG peptide in buffer A. Pooled fractions were dialyzed in 20 mM Tris, 150 mM NaCl, 5% glycerol and 1 mM DTT, pH 7.8.
General Procedure for CARM1 Enzyme Assays on Peptide Substrates. The assays were all performed in a buffer consisting of 20 mM Bicine (pH=7.6), 1 mM TCEP, 0.005% BSG, and 0.002% Tween 20, prepared on the day of use. […] DMSO (1 ul) was added to Columns 11, 12, 23, 24, rows A-H for the maximum signal control and 1 ul of SAH, a known product and inhibitor of CARM1, was added to columns 11, 12, 23, 24, rows I-P for the minimum signal control. A cocktail (40 ul) containing the CARM1 enzyme was added by Multidrop Combi (Thermo-Fisher). The compounds were allowed to incubate with CARM1 for 30 min at room temperature, then a cocktail (10 ul) containing ^3H-SAM and peptide was added to initiate the reaction (final volume=51 ul). […] The assays were stopped by the addition of non-radiolabeled SAM (10 ul) to a final concentration of 300 uM, which dilutes the ^3H-SAM to a level where its incorporation into the peptide substrate is no longer detectable. 50 ul of the reaction in the 384-well polypropylene plate was then transferred to a 384-well Flashplate and the biotinylated peptides were allowed to bind to the streptavidin surface for at least 1 hour before being washed once with 0.1% Tween20 in a Biotek ELx405 plate washer. The plates were then read in a PerkinElmer TopCount plate reader to measure the quantity of ^3H-labeled peptide bound to the Flashplate surface, measured as disintegrations per minute (dpm) or alternatively, referred to as counts per minute (cpm).
Where dpm=disintegrations per minute, cmpd=signal in assay well, and min and max are the respective minimum and maximum signal controls.
Where top and bottom are the normally allowed to float, but may be fixed at 100 or 0 respectively in a 3-parameter fit. The Hill Coefficient normally allowed to float but may also be fixed at 1 in a 3-parameter fit. Y is the % inhibition and X is the compound concentration.

T1 sequence (Q99873 with tags, fused parts or gaps): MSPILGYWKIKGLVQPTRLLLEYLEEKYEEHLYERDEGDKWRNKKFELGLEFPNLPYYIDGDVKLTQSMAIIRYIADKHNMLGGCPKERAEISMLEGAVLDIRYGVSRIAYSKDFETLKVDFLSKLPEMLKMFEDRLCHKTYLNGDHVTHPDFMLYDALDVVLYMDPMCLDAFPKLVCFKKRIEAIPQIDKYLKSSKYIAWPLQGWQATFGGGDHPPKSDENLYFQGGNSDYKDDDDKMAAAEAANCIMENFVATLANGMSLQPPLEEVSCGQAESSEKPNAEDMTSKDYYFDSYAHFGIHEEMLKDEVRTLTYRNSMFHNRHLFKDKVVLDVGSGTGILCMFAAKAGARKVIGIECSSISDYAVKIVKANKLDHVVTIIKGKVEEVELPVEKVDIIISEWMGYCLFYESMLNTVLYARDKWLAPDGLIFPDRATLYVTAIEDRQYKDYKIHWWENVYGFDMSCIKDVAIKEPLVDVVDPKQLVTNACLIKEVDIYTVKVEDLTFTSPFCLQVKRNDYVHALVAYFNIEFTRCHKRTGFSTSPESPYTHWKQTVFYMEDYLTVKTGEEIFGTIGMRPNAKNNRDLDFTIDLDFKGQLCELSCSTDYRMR

## CN(CCN)Cc1n[nH]cc1-c1ccc(OC(F)(F)F)cc1 [Compound 105]
[1]
  IC50: < 0.1 µM
Human CARM1 (PRMT4)
  IC50: 3.01 to 10 µM

## COc1cc(F)ccc1-c1n[nH]cc1CN(C)CCN [Compound 151]
[1]
  IC50: 0.101 to 1 µM
Human CARM1 (PRMT4)
  IC50: 3.01 to 10 µM

## CN(CCN)Cc1n[nH]cc1-c1ccc(C2CCOCC2)cc1 [Compound 145]
[1]
  IC50: < 0.1 µM
Human CARM1 (PRMT4)
  IC50: 3.01 to 10 µM

## Cc1ccccc1-c1n[nH]cc1CN(C)CCN [Compound 161]
[1]
  IC50: 0.101 to 1 µM
Human CARM1 (PRMT4)
  IC50: 3.01 to 10 µM

## COc1ccc(-c2n[nH]cc2CN(C)CCN)c(Cl)c1 [Compound 146]
[1]
  IC50: < 0.1 µM
Human CARM1 (PRMT4)
  IC50: 3.01 to 10 µM

## CN(CCN)Cc1c[nH]nc1-c1ccc(Cl)cc1F [Compound 132]
[1]
  IC50: < 0.1 µM
Human CARM1 (PRMT4)
  IC50: 1.01 to 3 µM

## CCn1cc(CN(C)CCNC)c(-c2ccc(F)cc2)n1 [Compound 8]
[1]
  IC50: 1.01 to 3 µM
Human CARM1 (PRMT4)
  IC50: 3.01 to 10 µM

## COc1ccccc1-c1n[nH]cc1CN(C)CCN [Compound 109]
[1]
  IC50: 0.101 to 1 µM
Human CARM1 (PRMT4)
  IC50: 3.01 to 10 µM

## CN(CCN)Cc1cnn(CC(O)CO)c1-c1ccc(F)cc1 (stereo not shown) [Compound 113]
[1]
  IC50: 1.01 to 3 µM
Human CARM1 (PRMT4)
  IC50: > 10 µM

## CN(CCN)Cc1c[nH]nc1-c1cc(Cl)cc(Cl)c1 [Compound 137]
[1]
  IC50: < 0.1 µM
Human CARM1 (PRMT4)
  IC50: 0.101 to 1 µM

## COc1ccc(-c2n[nH]cc2CN(C)CCN)c(C(F)(F)F)c1 [Compound 154]
[1]
  IC50: 0.101 to 1 µM
Human CARM1 (PRMT4)
  IC50: > 10 µM

## CN(CCN)Cc1c[nH]nc1-c1cccc(Cl)c1 [Compound 122]
[1]
  IC50: < 0.1 µM
Human CARM1 (PRMT4)
  IC50: 0.101 to 1 µM

## CC(C)Oc1ccc(-c2n[nH]cc2CN(C)CCN)cc1F [Compound 97]
[1]
  IC50: < 0.1 µM
Human CARM1 (PRMT4)
  IC50: 0.101 to 1 µM

## CN(CCN)Cc1cn(CC2CCOCC2)nc1-c1ccc(F)cc1 [Compound 128]
[1]
  IC50: 3.01 to 10 µM
Human CARM1 (PRMT4)
  IC50: > 10 µM

## CN(CCN)Cc1c[nH]nc1-c1cc(F)cc(Cl)c1 [Compound 121]
[1]
  IC50: < 0.1 µM
Human CARM1 (PRMT4)
  IC50: 0.101 to 1 µM

## Cc1ccc(-c2n[nH]cc2CN(C)CCN)c(F)c1 [Compound 108]
[1]
  IC50: < 0.1 µM
Human CARM1 (PRMT4)
  IC50: 1.01 to 3 µM

## CN(CCN)Cc1c[nH]nc1-c1ccc(OCC(F)(F)F)cc1 [Compound 96]
[1]
  IC50: < 0.1 µM
Human CARM1 (PRMT4)
  IC50: < 0.1 µM

## CN(CCN1CCCC1)Cc1c[nH]nc1-c1ccc(C#N)cc1 [Compound 139]
[1]
  IC50: > 10 µM
Human CARM1 (PRMT4)
  IC50: > 10 µM

## CN(CCN)Cc1n[nH]cc1-c1ccc(C#N)cc1 [Compound 100]
[1]
  IC50: < 0.1 µM
Human CARM1 (PRMT4)
  IC50: 3.01 to 10 µM

## COc1ccc(-c2n[nH]cc2CN(C)CCN)c(C)c1 [Compound 155]
[1]
  IC50: < 0.1 µM
Human CARM1 (PRMT4)
  IC50: > 10 µM

## CN(CCN)Cc1c[nH]nc1-c1ccc(F)cc1F [Compound 99]
[1]
  IC50: < 0.1 µM
Human CARM1 (PRMT4)
  IC50: 3.01 to 10 µM

## CN(CCN)Cc1c[nH]nc1-c1ccc(F)c(Cl)c1 [Compound 124]
[1]
  IC50: < 0.1 µM
Human CARM1 (PRMT4)
  IC50: 0.101 to 1 µM

## CN(CCN)Cc1c[nH]nc1-c1ccc(Cl)c(F)c1 [Compound 118]
[1]
  IC50: < 0.1 µM
Human CARM1 (PRMT4)
  IC50: 0.101 to 1 µM
